The nature of data set [1]: Amount of antimycotic in the nail after topical application of the lacquer compositions, HPLC after extraction of distal nail material. The class given is in vivo, human. The procedure:
The amount of antimycotic in the nail after application of the compositions according to the invention was determined by HPLC measurements after extraction of distal nail material obtained on cutting the nails of volunteers.
After treatment 2× a week for 6 weeks, the values found for the composition of Example 3 were as follows:
After treatment 2× a week for 2 weeks, the values found for the composition of Example 4 were as follows: […]

For data set [2] the following is noted: oral administration of 100 mg of itraconazole each day for 3 months; cited from earlier work.
[3] abbreviates: composition of Example 3, topical, treatment 2x a week for 6 weeks, distal nail material of volunteers.

Consider three compounds from patent US20010046478A1, “Antiinfective combinations and their use for the topical treatment of fungal infections of the toenails and fingernails” (priority 2000, published 2001).

The structures appear in SMILES notation.

Take `CCC(C)n1ncn(-c2ccc(N3CCN(c4ccc(OCC5COC(Cn6cncn6)(c6ccc(Cl)cc6Cl)O5)cc4)CC3)cc2)c1=O` (centres unmarked) [itraconazole]: the “amount of antimycotic in the nail” value in data set [1] (setting [3]) was 800 ng/g of nail. In addition, the “itraconazole concentration in the distal nail plate” value in data set [2] is recorded as 100 ng/g of nail.

Turning to `Cc1cc(C2CCCCC2)n(O)c(=O)c1` [ciclopirox, 6-cyclohexyl-1-hydroxy-4-methyl-2(1H)-pyridone], the “amount of antimycotic in the nail” value in data set [1] (setting [3]) is reported as 140 μg/g of nail; in data set [1] (composition of Example 4, topical, treatment 2x a week for 2 weeks, distal nail material of volunteers), 92 μg/g of nail.

For `OC(Cn1cncn1)(Cn1cncn1)c1ccc(F)cc1F` [fluconazole, α-(2,4-difluorophenyl)-α-(1H-1,2,4-triazol-1-ylmethyl)-1H-1,2,4-triazol-1-ethanol], the “amount of antimycotic in the nail” value in data set [1] (human, in vivo, 2 weeks) is 17 μg/g of nail.
